According to patent US11040053B2, “Compositions and methods for activating “stimulator of interferon gene”13 dependent signalling” (CHINOOK THERAPEUTICS, INC., priority 2015, dated 2021):

Key:
[1] = target: T1, human-STING(E149-S379)H232R protein (Homo sapiens, UniProt Q86WV6, H232R); test: Surface Plasmon Resonance binding to hSTING WT; conditions: Biacore T200, 15° C., steady-state analysis
T1 construct: His6 (C); made in house; host or cells: E. coli
Experimental: Binding of the mono- and di-F CDN compounds was assessed using Surface Plasmon Resononce to determine a binding constant. An E. coli expression construct (human-STING[E149-S379]H232R) was prepared harboring the protein sequence:
Aliquots were prepared and stored at −80° C. in 30 mM Tris pH 7.5/100 mM NaCl/10% glycerol.
N-terminal avi-tagged human-STING(E149-S379)H232R protein was immobilized (2500 RUs) on a streptavidin chip at 15° C. in a Biacore T200 (GE Healthcare). Titrations of cyclic dinucleotides (CDNs as indicated in Table 6) in 30 mM Tris pH 7.5/50 mM NaCL/0.005% Tween 20/1 mM DTT/2% DMSO, were profiled (30 μLs/min, 180 seconds for sample contact/120 seconds for dissociation) against hSTING at 15° C. Kinetic analysis of the data was performed using Biacore T200 Evaluation software. Steady-state analysis of the data was performed using Graphpad Prism 6.0 software, using one site-specific binding algorithm (Equation is Y=Bmax*X/(Kd+X)).

B16.SIY cells = test: B16.SIY melanoma mouse model, intra-tumoral injection; type: in vivo, C57BL/6 mice
Experimental: To determine whether the derivative molecules elicit anti-tumor immunity, 6-8 week old female C57BL/6 mice (8 mice per group) were implanted with B16.SIY cells (5×10^5 cells in 100 μL PBS). Mice were treated with reference compound 3′3′-RR-(A)(A) and di-F compound 3′3′-RR-(2′F-A)(2′F-A) (5, 50, 100 μg in a total volume of 40 μL HBSS), or HBSS vehicle control. Treatments began when tumors reached a volume of approximately 100 mm^3, on day 9 post tumor implantation. The CDN compounds were administered by […] injection into the center of the tumor (IT) using a 27 gauge needle. Mice were bled on day 16 post tumor implantation and PBMCs were isolated by Ficoll gradient (Miltenyi Biotech). 1×10^5 PBMCs were pre-incubated with anti-CD16/32 monoclonal antibody to block potential nonspecific binding, and labeled with PE-MHC class I pentamer (Proimmune) consisting of murine H-2Kb complexed to […] (SIY, SEQ ID NO: 16) peptide, anti-TCRβ-AF700 (H57-597), anti-CD8-Pacific Blue (53-6.7), anti-CD4-Pacific Orange (RM4-5) (all antibodies from BioLegend) and the Fixable Viability Dye eFluor 450 (eBioscience). Stained cells were analyzed using FACS Versa cytometer with FACSDiva software (BD). Data analysis was conducted with FlowJo software (Tree Star).

T1 sequence (Q86WV6 with tags, fused parts or gaps H232R): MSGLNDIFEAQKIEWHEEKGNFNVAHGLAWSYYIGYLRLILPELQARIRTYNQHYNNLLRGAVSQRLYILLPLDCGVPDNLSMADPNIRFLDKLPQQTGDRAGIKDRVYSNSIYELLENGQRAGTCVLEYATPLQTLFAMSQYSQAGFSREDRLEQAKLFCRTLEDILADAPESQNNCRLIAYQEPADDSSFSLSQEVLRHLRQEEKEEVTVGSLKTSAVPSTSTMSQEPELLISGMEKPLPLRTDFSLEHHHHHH

Structure (SMILES): Nc1ncnc2c1ncn2[C@@H]1O[C@@H]2CO[P@@](=O)(S)O[C@H]3[C@@H](F)[C@H](n4cnc5c(N)ncnc54)O[C@@H]3CO[P@@](=O)(S)O[C@H]2[C@H]1F [Compound 6, (2R,3R,3aR,5R,7aR,9R,10R,10aR,12R,14aR)-2,9-bis(6-amino-9H-purin-9-yl)-3,10-difluoro-5,12-dimercaptooctahydro-2H,7H-difuro[3,2-d:3′,2′-j][1,3,7,9]tetraoxa[2,8]diphosphacyclododecine 5,12-dioxide]
- Kd [1]: 1 nM
- tumor volume / tumor growth, in words (B16.SIY cells; FIG. 14A, IT injection 5, 50, 100 μg, established B16-SIY melanomas): rejected the growth of established B16-SIY melanomas at all doses
- percent of SIY-specific CD8+ T cells in PBMCs, in words (B16.SIY cells; FIG. 14B, 5 μg IT, day 7 post-IT injection, vs HBSS control): elicited significantly SIY-specific CD8^+ T cells
